In the case of `CCON=Cc1ccc(O)c(OCC)c1` [Test compound 4, 3-ethoxy-4-hydroxybenzaldehyde O-ethyloxime], the melting point (commonly the temperature of the solid-liquid transition) came out at 43 °C.

As to `CCOc1cc(C=NO)ccc1O` [Test compound 9, 3-ethoxy-4-hydroxybenzaldoxime], the melting point is 189 °C (dec.).

Compound `CCON=Cc1ccc(O)c(O)c1` [Test compound 11, 3,4-dihydroxybenzaldehyde O-ethyloxime] returned a melting point of 23 °C.

The compound `CCON=Cc1ccc(OC)c(O)c1` [Test compound 3, 3-hydroxy-4-methoxybenzaldehyde O-ethyloxime] had a melting point of 61.4 °C.

With `ON=Cc1ccc(O)c(O)c1` [Test compound 5, 3,4-dihydroxybenzaldoxime], the melting point is 143 °C (dec.).

In the case of `COc1cc(C=NO)ccc1O` [Test compound 10, 4-hydroxy-3-methoxybenzaldoxime], the melting point amounted to 118.2 °C.

Turning to `ON=Cc1cc(O)c(O)c(O)c1` [Test compound 2, 3,4,5-trihydroxybenzaldoxime], the melting point was 177 °C (dec.).

Compound `COc1ccc(C=NO)cc1O` [Test compound 6, 3-hydroxy-4-methoxybenzaldoxime] registered a melting point of 142.4 °C.

`CCON=Cc1ccc(O)c(OC)c1` [Test compound 7, 4-hydroxy-3-methoxybenzaldehyde O-ethyloxime] showed a melting point of 31.7 °C.

In the case of `Cc1ccc(CON=Cc2ccc(O)c(O)c2)cc1` [Test compound 8, 3,4-dihydroxybenzaldehyde O-(4-methylbenzyl)-oxime], the melting point was in the range of 85 to 86 °C.

The values are drawn from patent publication US6395260B1, “Topical cosmetic compositions comprising benzaldoximes” (Haarmann & Reimer GmbH, priority 1999, dated 2002).
